Test results reported in patent US20240101572A1, “DIHYDROOXADIAZINONE COMPOUND AND PHARMACEUTICAL USE THEREOF” (Japan Tobacco Inc., priority 2022, published 2024).
pIC50: −log10 of the molar value. Where two headings read alike, the source gives them in different places.

Assays:
[1] = molecular target: full-length human PLD2 (Homo sapiens (Human), UniProt O14939); assay: Evaluation of human PLD2 enzyme inhibitory activity (Amplex Red / choline oxidase fluorescence); format: biochemical; conditions: for pIC50: full-length human PLD2 enzyme, read-out: PLD2 IC50
Sequence of full-length human PLD2 (O14939 whole entry, the tested form may be a part): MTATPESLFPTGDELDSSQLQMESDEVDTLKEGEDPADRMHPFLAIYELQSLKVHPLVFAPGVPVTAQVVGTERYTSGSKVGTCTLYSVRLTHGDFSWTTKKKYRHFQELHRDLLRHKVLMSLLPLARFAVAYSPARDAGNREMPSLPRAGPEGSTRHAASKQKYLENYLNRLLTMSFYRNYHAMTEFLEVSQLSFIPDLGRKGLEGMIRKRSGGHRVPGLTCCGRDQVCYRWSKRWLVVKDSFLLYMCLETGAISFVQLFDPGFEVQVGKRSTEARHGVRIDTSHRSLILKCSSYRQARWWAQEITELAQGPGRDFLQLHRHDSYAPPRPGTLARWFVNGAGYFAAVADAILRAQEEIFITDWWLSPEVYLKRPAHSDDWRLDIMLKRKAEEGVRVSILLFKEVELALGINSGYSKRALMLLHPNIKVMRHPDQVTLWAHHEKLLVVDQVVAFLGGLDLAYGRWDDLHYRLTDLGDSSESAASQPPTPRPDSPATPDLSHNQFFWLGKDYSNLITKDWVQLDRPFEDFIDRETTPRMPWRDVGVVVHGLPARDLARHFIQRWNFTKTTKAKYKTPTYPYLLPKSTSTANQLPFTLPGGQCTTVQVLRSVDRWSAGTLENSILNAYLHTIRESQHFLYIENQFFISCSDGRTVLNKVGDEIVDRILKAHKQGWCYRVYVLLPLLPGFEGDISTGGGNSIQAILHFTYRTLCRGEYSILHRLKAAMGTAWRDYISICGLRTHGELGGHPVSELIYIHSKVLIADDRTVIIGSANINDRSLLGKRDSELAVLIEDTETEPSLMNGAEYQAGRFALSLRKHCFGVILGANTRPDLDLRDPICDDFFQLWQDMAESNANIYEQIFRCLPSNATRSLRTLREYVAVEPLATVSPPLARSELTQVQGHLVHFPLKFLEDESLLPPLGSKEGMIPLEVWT
Protocol: A method for measuring human PLD2 enzyme inhibitory activity using an enzyme in which a FLAG-tag is added to the N-terminus of full-length human PLD2 (1-933 amino acids) is shown below.
(§1) DNA fragment in which a FLAG-tag sequence is added to the 5′-end of full-length human PLD2 was amplified by PCR method, using commercially available human PLD2 gene (Promega KK) as a template. The amplified DNA fragment was fused with vector pVL1393 for baculovirus production (Pharmingen) digested with BamHI and EcoRI, using In-Fusion HD Cloning Kit (Takara Bio). The full-length human PLD2-expression plasmid DNA for baculovirus was isolated from Escherichia coli DH5a (TOYOBO) transformed with the obtained In-Fusion reaction product. Next, DNA fragment in which a FLAG-tag sequence is added to the 5′-end of full-length human PLD2 was amplified by PCR method, using the full-length human PLD2-expression plasmid DNA for baculovirus as a template. The amplified DNA fragment was fused with a DNA fragment in which a linker sequence is introduced into pcDNA3.4-TOPO (Life Technologies), using In-Fusion HD Cloning Kit (Takara Bio). The full-length human PLD2-expression plasmid DNA for animal cells was isolated from Escherichia coli DH5a transformed with the obtained In-Fusion reaction product. The base sequence of the full-length human PLD2 cloned into vector was determined by a Dye Terminator method using BigDye Terminator v3.1 Cycle Sequencing Kit (Applied Biosystems). The determined sequence was a sequence in which the FLAG-tag sequence was inserted at the 5′-end of the full-length human PLD2 (GenBank Accession Number: NM 002663).
(§2) Expi293F cells (Life Technologies) were cultured with shaking using Expi293 Expression Medium (Life Technologies) as a medium at 37° C. in the presence of 8% CO2. The gene introduction reagent PEI was prepared by dissolving Polyethylenimine Max (nominally MW 40,000) (Polysciences) in MilliQ water, adjusting the pH of the solution to 7.0 with NaOH to obtain a 1 mg/mL solution, and then filtering the solution through 0.22 μm filter. The full-length human PLD2-expression plasmid DNA for animal cells was transfected into Expi293F cells using PEI, and after 48 hours of shaking culture, the cells were collected and stored at −80° C.
(§3) To the full-length human PLD2-expressed cells was added a Homogenate buffer (20 mmol/L Na-phosphate pH 7.5, 250 mmol/L NaCl, 1 mmol/L MgCl2, 1% β-OG, 0.05 mmol/L DTT+complete EDTA-free (Roche Diagnostics K.K.)), and the cells were lysed by Microfluidizer Processor M-110EH (Mizuho Kogyo Co., Ltd.). The lysate was centrifuged at 10,100×g at 4° C. for 15 minutes, and the supernatant was collected and filtered through 0.45 μm filter. To the centrifuged supernatant was added ANTI-FLAG M2 Affinity Gel (SIGMA-Aldrich) resin equilibrated with a Homogenate buffer, and the mixed solution was stirred at 4° C. for 1 hr or more. The mixed solution was loaded onto Poly-Prep column, and the resin was washed with a Wash buffer (20 mmol/L Na-phosphate pH 7.5, 150 mmol/L NaCl, 1 mmol/L MgCl2, 0.02% Triton, 0.05 mmol/L DTT). A Wash buffer containing 400 μg/mL DYKDDDDK Peptide (Scrum Inc.) was added to the column to elute the protein bound to the resin. The eluted fractions were subjected to SDS-PAGE followed by CBB staining to identify the fractions containing the full-length human PLD2. The eluted fractions of the full-length human PLD2 were collected and concentrated using Amicon Ultra-15 100k (Merck Millipore). The concentrated fractions were collected, flash-frozen in liquid nitrogen and stored at −80° C.
(§4) A DMSO or test substance solution (the DMSO final concentration: 5%) prepared by diluting DMSO or test substance with an Assay buffer (50 mmol/L HEPES pH 7.5, 80 mmol/L KCl, 3 mmol/L EGTA, 3.6 mmol/L MgCl2, 0.01% NP-40, 0.1% BSA), and the solution was added to a 384 well Assay Plate (Black, Polystyrene, Non-Treated, Cat No. 3573, Corning) by 5 μL/well. […]

[2] = molecular target: full-length human PLD1 (Homo sapiens (Human), UniProt Q13393); assay: Evaluation of human PLD1 enzyme inhibitory activity (Amplex Red / choline oxidase fluorescence); format: biochemical; conditions: for pIC50: full-length human PLD1 enzyme, read-out: PLD1 IC50
Sequence of full-length human PLD1 (Q13393 other isoform, or with tags, fused parts or gaps): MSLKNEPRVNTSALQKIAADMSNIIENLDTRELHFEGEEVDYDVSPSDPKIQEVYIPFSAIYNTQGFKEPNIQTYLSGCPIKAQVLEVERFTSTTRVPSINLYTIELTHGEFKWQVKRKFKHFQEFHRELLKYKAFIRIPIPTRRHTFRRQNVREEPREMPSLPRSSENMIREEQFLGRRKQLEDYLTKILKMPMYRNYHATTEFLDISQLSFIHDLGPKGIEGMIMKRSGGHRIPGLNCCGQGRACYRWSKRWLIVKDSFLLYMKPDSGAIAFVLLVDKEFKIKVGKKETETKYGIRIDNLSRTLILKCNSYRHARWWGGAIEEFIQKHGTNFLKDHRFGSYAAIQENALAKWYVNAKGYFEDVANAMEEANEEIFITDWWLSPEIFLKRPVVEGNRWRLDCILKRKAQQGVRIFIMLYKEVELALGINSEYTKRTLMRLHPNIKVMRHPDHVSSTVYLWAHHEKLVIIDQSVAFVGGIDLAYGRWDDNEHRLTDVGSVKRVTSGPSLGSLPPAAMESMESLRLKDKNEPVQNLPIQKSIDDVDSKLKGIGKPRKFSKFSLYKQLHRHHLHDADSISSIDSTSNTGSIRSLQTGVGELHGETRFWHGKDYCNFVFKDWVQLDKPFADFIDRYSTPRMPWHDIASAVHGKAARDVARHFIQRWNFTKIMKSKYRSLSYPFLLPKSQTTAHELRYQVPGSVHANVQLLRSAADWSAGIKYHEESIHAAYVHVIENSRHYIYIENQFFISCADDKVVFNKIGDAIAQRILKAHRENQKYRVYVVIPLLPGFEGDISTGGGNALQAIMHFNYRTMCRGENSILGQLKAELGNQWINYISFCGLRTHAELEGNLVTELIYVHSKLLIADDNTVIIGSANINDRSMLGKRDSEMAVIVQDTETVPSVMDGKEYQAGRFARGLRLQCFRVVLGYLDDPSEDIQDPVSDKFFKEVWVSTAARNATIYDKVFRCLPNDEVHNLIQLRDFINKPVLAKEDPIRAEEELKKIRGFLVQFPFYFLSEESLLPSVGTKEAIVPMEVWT
Protocol: A method for measuring human PLD1 enzyme inhibitory activity using an enzyme in which a FLAG-tag is added to the N-terminus of full-length human PLD1 (1-1036 amino acids) is shown below.
as §1, with “PLD1” for “PLD2”, “PLD1-expression” for “PLD2-expression”, “NM_001130081).” for “NM 002663).”
as §2, with “PLD1-expression” for “PLD2-expression”
as §3, with “PLD1-expressed” for “PLD2-expressed”, “PLD1.” for “PLD2.”, “PLD1” for “PLD2”
as §4

Structure (SMILES)	pIC50 [1]	pIC50 [2]	other results
C[C@@H](C[C@H]1CC[C@]2(CC1)OC(=O)NN=C2c1cc(C#N)ccc1Br)NC(=O)C(=O)O [Example 2-171]			inhibition at 10 µM ([1]; read-out: human PLD2 % inhibition at 10 μM): 23%; inhibition at 10 µM ([1]; read-out: inhibition rate of PLD2 at 10 μM compound): 23%; inhibition at 10 µM ([2]; read-out: human PLD1 % inhibition at 10 μM): 12%; inhibition at 10 µM ([2]; read-out: inhibition rate of PLD1 at 10 μM compound): 12%
C[C@@H](C[C@H]1CC[C@]2(CC1)OC(=O)NN=C2c1ccc(F)cc1)NC(=O)c1cc2cc(F)ccc2[nH]1 [Example 4]	7.96	7.44	
CNC(=O)C(=O)N[C@@H](C)[C@H](C)[C@H]1CC[C@]2(CC1)OC(=O)NN=C2c1cc(C#N)ccc1Br [Example 338]	> 8.00	7.62	
CNC(=O)C(=O)N[C@@H](C)C[C@H]1CC[C@]2(CC1)OC(=O)NN=C2c1cccc2c1OCC2 [Example 106]	7.32	7.59	
Cc1cc(F)ccc1C1=NNC(=O)O[C@]12CC[C@@H](C[C@H](C)NC(=O)N1CC[C@H](c3ccccc3)C1)CC2 [Example 137]	5.80	6.30	
CNC(=O)C(=O)N[C@@H](C)C[C@H]1CC[C@]2(CC1)OC(=O)NN=C2c1ccc(S(C)(=O)=O)cc1Br [Example 33]	> 8.00	7.60	
CNC(=O)C(=O)N[C@@H](C)C[C@H]1CC[C@]2(CC1)OC(=O)NN=C2c1cc(OCC(F)(F)F)ccc1Br [Example 296]	> 8.00	7.89	
C[C@@H](C[C@H]1CC[C@]2(CC1)OC(=O)NN=C2c1ccc(F)cc1Br)NC(=O)C1CCC(=O)N1 (mixture of isomers) [Example 18]	6.80	6.07	
C[C@@H](CN1CCC2(CC1)OC(=O)NN=C2c1ccc(F)cc1Br)NC(=O)C(=O)NC12CC(C1)C2 [Example 202]	5.90	6.08	
C[C@@H](C[C@H]1CC[C@]2(CC1)OC(=O)NN=C2c1ccc(C#N)cc1Br)NC(=O)N1CCn2nccc2C1 [Example 270]	> 8.00	7.77	
C[C@@H](C[C@H]1CC[C@]2(CC1)OC(=O)NN=C2c1cccc(C#N)c1Br)NC(=O)c1cnn(C)c1 [Example 318]	7.39	7.43	
C[C@@H](C[C@H]1CC[C@]2(CC1)OC(=O)NN=C2c1ccc(F)cc1Br)NC(=O)CC#N [Example 41]	6.30	6.64	
CNC(=O)C(=O)N[C@@H](C)C[C@H]1CC[C@]2(CC1)OC(=O)NN=C2c1cnc(I)cc1C [Example 172]	7.92	7.64	
CNC(=O)C(=O)N[C@@H](C)C[C@H]1CC[C@]2(CC1)OC(=O)NN=C2c1cnc(C#N)cc1C [Example 188]	7.48	7.36	
CNC(=O)C(=O)N[C@@H](C)CN1CCC2(CC1)OC(=O)NN=C2c1cc(C#N)ccc1Cl [Example 2-006]	7.96	7.25	
CNC(=O)C(=O)N[C@@H](C)C[C@H]1CC[C@]2(CC1)OC(=O)NN=C2c1ccc(OCC(C)(C)O)cc1Br [Example 130]	> 8.00	7.74	
CCCS(=O)(=O)c1ccc(C2=NNC(=O)O[C@]23CC[C@@H](C[C@H](C)NC(=O)C(=O)NC)CC3)c(Cl)c1 [Example 77]	> 8.00	7.59	
Cc1cc(C(=O)N[C@@H](C)C[C@H]2CC[C@]3(CC2)OC(=O)NN=C3c2cnc(N3CCOCC3)cc2C)[nH]n1 [Example 221]	> 8.00	7.80	
CNC(=O)C(=O)N[C@@H](C)C[C@H]1CC[C@]2(CC1)OC(=O)NN=C2c1cnc(C(C)=O)cc1C [Example 193]	7.34	7.26	
C[C@@H](C[C@H]1CC[C@]2(CC1)OC(=O)NN=C2c1ccc(OC(F)(F)F)cc1Br)NC(=O)c1cc2ccccc2o1 [Example 87]	> 8.00	7.41	
Cc1cc(C(=O)N[C@@H](C)C[C@H]2CC[C@]3(CC2)OC(=O)NN=C3c2ccc(F)cc2Cl)[nH]n1 [Example 45]	7.64	7.57	
CC(=O)C(=O)N[C@@H](C)C[C@H]1CC[C@]2(CC1)OC(=O)NN=C2c1ccc(F)cc1Br [Example 30]	6.82	6.91	
Cc1cc(C(=O)N[C@@H](C)C[C@H]2CC[C@]3(CC2)OC(=O)NN=C3c2cnc(N3C[C@H]4C[C@@H]3CO4)cc2Cl)[nH]n1 [Example 239]	> 8.00	7.74	
CNC(=O)C(=O)N[C@@H](C)C[C@H]1CC[C@]2(CC1)OC(=O)NN=C2c1cnc(N2CCOCC2)cc1Cl [Example 242]	> 8.00	7.80	
Cc1cc(C(=O)N[C@@H](C)C[C@H]2CC[C@]3(CC2)OC(=O)NN=C3c2cnc(N3CCC(F)(F)C3)cc2C)[nH]n1 [Example 238]	> 8.00	7.92	
